One block for each substance: values may come before it.
Tests used:
GST-LC3B [1] = experiment: GST pull-down with GST-LC3B wild type; assay type: binding, human; conditions: for interaction with GST-LC3B: Fig. 1b, triplicates; for interaction with GST-LC3B wild type: Flag-Nix in cell lysate, Fig. 3a
Procedure: (§1) GST fusions of various proteins (pGEX plasmids) were expressed in BL21 E. coli. Fusion protein expression was induced by adding 0.5 mM IPTG for 4 hrs. Bacteria were lysed in 20 mM Tris-HCl, pH 7.5, 10 mM EDTA, pH 8.0, 5 mM EGTA, 150 mM NaCl supplemented with 2 mg/ml lysozyme. GST fusion proteins were subsequently bound to pre-washed Glutathione-Sepharose 4B beads (GE Healthcare). After several washes, fusion protein-bound beads were used directly in binding assays.
(§2) HEK293 or HeLa cells were transfected with expression constructs encoding the protein of interest using JetPRIME (Polyplus Transfection). 24 hrs post-transfection cells were lysed in 50 mM HEPES, pH 7.5, 150 mM NaCl, 1 mM EDTA pH 8.0, 1 mM EGTA, 10% glycerol, 1% Triton X-100, 25 mM NaF, […] and lysates were incubated for 4 hrs with immobilized GST-fusion proteins at 4 °C. Following 5 washes, beads with co-precipitated proteins were resuspended in 2x SDS-PAGE loading buffer, boiled and loaded onto 10% or 12% SDS-PAGE gels for analysis. All GST pull-down experiments were performed in triplicates.

GST-LC3A = experiment: GST pull-down with GST-LC3A; assay type: binding, human; conditions: Fig. 1b, triplicates
Procedure: as §1, §2

[2] = tested on: HeLa cells (recruitment of LC3B to mitochondria); experiment: LC3B positive vesicles per 100 cells, immunofluorescence microscopy; assay type: cell-based; conditions: 10 µM CCCP for 2 hours, vs wild type and S34,35A, three independent experiments, Fig. 3b
Procedure: (§3) HeLa cells were seeded, grown on coverslips or 8-well microscopy slides (ibidi) and transfected with either wild type or mutant Nix or Bnip3 together with wild type or mutant LC3B constructs using JetPRIME transfection reagent according to manufacturer’s instructions. 24 hrs post transfection cells were fixed in 2% or 4% paraformaldehyde and permeabilized with 0,1% Triton X-100 solution. Cells were blocked in 5% BSA/PBS/0.1% Triton X-100 for 1 hr at room temperature or 4 °C overnight. Primary and secondary antibodies were diluted in blocking solution and washed in 0,1% Triton X-100/PBS. Coverslips were mounted in Prolong mounting media (Invitrogen). Cells in 8-well microscopy slides were placed in PBS following staining. Cells were imaged using a Zeiss AxioVision or DeltaVision RT microscope system (Applied Precision). Quantification of Nix-LC3B colocalization was performed as follows: for each Nix construct, LC3B positive dots (signals) were numbered in 100 cells. Only clear and well-defined LC3B signals are taken into consideration, while weak and oversized signals were excluded from the analysis.

LC3B K49A = target: T1, LC3B K49A (Homo sapiens, UniProt Q9GZQ8, K49A); experiment: ITC, LC3B K49A mutant; assay type: binding
T1 construct: Ub3 (ubiquitin fusion) (N); made in house
Procedure: (§5) Before the experiment, the proteins and peptides were equilibrated with a buffer containing 40 mM Na2HPO4, 80 mM NaCl at pH 7.0, and supplied with 5 mM protease inhibitors cocktail.
(§6) All titration experiments were performed at 25 °C using a VP-ITC microcalorimeter (MicroCal Inc., MA, USA). The ITC-data were analyzed with the ITC-Origin 7.0 software with a “one-site” binding model. The peptides at concentrations of 0.31 mM were titrated into 0.018 mM LC3B proteins in 25 steps. The proteins and peptides concentrations were calculated from the UV-absorption at 280 nm by Nanodrop spectrophotometer (Thermo Fisher Scientific, DE, USA).

LC3B wild type = target: T2, LC3B wild type (Homo sapiens, UniProt Q9GZQ8); experiment: Isothermal titration calorimetry (ITC), LC3B wild type; assay type: binding
T2 construct: Ub3 (ubiquitin fusion) (N); made in house
Procedure: as §5, §6

[3] = tested on: HeLa cells expressing GFP-LC3B K51A; experiment: Colocalization with GFP-LC3B K51A, fluorescence microscopy; assay type: cell-based; conditions: Fig. 4d,e
Procedure: as §3, with “Only clear and well-defined LC3B signals are taken into consideration, while weak and oversized signals were excluded from the analysis.” left out
HeLa cells were plated in 8-well microscopy µ-slides (ibidi) were transfected GFP-LC3 and RFP-Nix WT, S34,35A or S34,35E. […] Slice-by-slice co-localization of mitochondrial and AV masks were calculated using the Boolean AND function. All slices for each binary stack were summed, and the ratio of area calculated from mitochondrialy-localized AV over total mitochondria content is reported as a cellular fraction.

[4] = tested on: HEK293 cells (mitochondrial loss); experiment: Mitochondrial removal by flow cytometry; assay type: cell-based; conditions: HEK293, GFP-Nix, 10 μM CCCP 24 hours; vs wild type
Procedure: HEK293 cells were transfected with GFP expression constructs encoding the protein of interest using JetPRIME (Polyplus Transfection). 24 hrs post-transfection cells were treated with 10 µM CCCP for 24 hrs. After treatment, cells were washed with PBS, trypsinized with trypsin for 5 min and resuspended by gentle pipetting. Trypsin-mediated digestion was arrested by the addition of DMEM supplemented with 10% FBS and cells were centrifuged at 500 g for 5 min. To remove cell clumps, cells were resuspended in PBS and filtered through the 70 µm Cell Strainer (BD Falcon). Approximately 10^6 cells were acquired for further flow cytometry analysis. Before fixation, cells were washed twice with FACS buffer (2% FBS, 0,02% NaN3 in PBS) and each time centrifuged at 500 g for 5 min. Cells were fixed with freshly prepared 4% paraformaldehyde for 10 min at room temperature, washed twice with FACS buffer and finally resuspended in […] prior to analysis. […] The acquired data were gated for singlets by generating FSC-A vs FSC-H plot after which dead cells were excluded and the mean fluorescence in FL1 channel was collected. The mean fluorescence of the CCCP and CCCP/Baf treated samples was compared with the untreated control and the results were expressed as a percentage of the retained mitochondria of at least two independent experiments. Results were analyzed using FlowLogic software.

[5] = tested on: HeLa cells expressing GFP-LC3B wild type; experiment: Colocalization / sequestration of mitochondria with GFP-LC3B wild type, fluorescence microscopy; assay type: cell-based; conditions: Fig. 4a
Procedure: as §3
HeLa cells were plated in 8-well microscopy µ-slides (ibidi) were transfected GFP-LC3 and RFP-Nix WT, S34,35A or S34,35E. From Z-stacks, single cells were cropped for analysis by ImageJ. Binary masks for each slice within ≥10 representative Z-stacks per condition of (i) Nix-labeled mitochondria and (ii) GFP-LC3 were generated by image segmentation. Slice-by-slice co-localization of mitochondrial and AV masks were calculated using the Boolean AND function. All slices for each binary stack were summed, and the ratio of area calculated from mitochondrialy-localized AV over total mitochondria content is reported as a cellular fraction.

GFP-LC3B wild type = experiment: Co-immunoprecipitation with GFP-LC3B wild type; assay type: binding, human; conditions: α-GFP IP, Western blot
Procedure: (§4) Cells were scraped, centrifuged at 500 g for 5 min, and lysed in 150 µL CHAPS lysis buffer (2% CHAPS, 1% Triton X-100, 137 mM NaCl, 2 mM EDTA, 10% glycerol, and 20 mM Tris-HCl, pH 8.0) containing protease and phosphatase inhibitors. 5 µL of total lysate was kept as Input sample and 145 µL of cell lysate was incubated with 12.5 µL α-GFP (1:40, Roche)-coupled Dynabeads Protein G (purchased from Invitrogen) for 2 hrs at 4 °C. This step was followed by three washing steps using 0.02% Tween-20/PBS and immunoprecipitated proteins were eluted from Dynabeads by adding 4X LDS buffer (purchased from Invitrogen) and 10X sample reducing agent (purchased from Invitrogen) to the beads. Heating at 70 °C for 10 min will denaturized the proteins to analyze them by Western blotting.

GFP-LC3B K51A = experiment: Co-immunoprecipitation with GFP-LC3B K51A; assay type: binding, human; conditions: α-GFP IP, Western blot
Procedure: as §4

[6] = tested on: cells expressing LC3B K49A; experiment: Colocalization with LC3B K49A, fluorescence microscopy; assay type: cell-based; conditions: vs wild type LC3B
Procedure: as §3

EGFP-LC3B K49A = experiment: Co-immunoprecipitation with EGFP-LC3B K49A; assay type: binding, human; conditions: Figs S3 and S7; vs wild type LC3B
Procedure: as §4

EGFP-LC3B R11A = experiment: Co-immunoprecipitation with EGFP-LC3B R11A; assay type: binding, human; conditions: α-GFP IP, 24 hrs post transfection, Fig. S5a
Procedure: as §4

GST-LC3B [7] = conditions: ref [17]; cited from earlier work
Procedure: Recently, it was determined that phosphorylation of serine residues juxtaposed to the LIR motif is responsible for the activation of receptor functions for Optn and Bnip3[5],[14]. […] Therefore, we mutated Ser34 and Ser35 in Nix to alanine, glutamic acid or aspartic acid re ...

EGFP-LC3B R10A = experiment: Co-immunoprecipitation with EGFP-LC3B R10A; assay type: binding, human; conditions: α-GFP IP, 24 hrs post transfection, Fig. S5a
Procedure: as §4

GST-LC3B K49A = experiment: GST pull-down with GST-LC3B K49A; assay type: binding, human; conditions: Fig. 3a, vs wild type LC3B
Procedure: as §1, §2

Substance: Nix S34E: single phosphomimetic Nix mutant
interaction with GST-LC3B (GST-LC3B [1]): stronger than wild type Nix but weaker than the double serine phosphomimetic S34,35D Nix mutant
interaction with GST-LC3A (GST-LC3A): stronger than wild type Nix but weaker than the double serine phosphomimetic S34,35D Nix mutant

Substance: Nix S34,35D: phosphomimetic Nix double mutant
recruitment of LC3B-positive vesicles [2]: increased recruitment of LC3B-positive vesicles compared to wild type and S34,35A

affinity to LC3B K49A (in words) (LC3B K49A): weak
affinity to wild type LC3B (in words) (LC3B wild type): weak
Substance: SQQGGWGTVFSLESEE [arbitrary LIR-similar peptide, residues 196–210 of the human protein BCL2L13 - analog of the yeast Atg32 protein]

Substance: Nix S34,35E: phosphomimetic Nix double mutant
colocalization with GFP-LC3B K51A [3]: loss of cellular colocalization
mitochondrial loss (fraction of removed mitochondria), in words [4]: more rapid
targeting of mitochondria to LC3B autophagosomes / colocalization with GFP-LC3B [5]: enhanced targeting of mitochondria to LC3B autophagosomes relative to wild type Nix
targeting of mitochondria to LC3B autophagosomes / colocalization with GFP-LC3B ([5]; listed as S34,35E): enhanced colocalization
recruitment of LC3B-positive vesicles [2]: increased recruitment of LC3B-positive vesicles compared to wild type and S34,35A
co-immunoprecipitation with GFP-LC3B wild type (GFP-LC3B wild type): strong interaction
interaction with GST-LC3B wild type (GST-LC3B [1]): robustly bound
co-immunoprecipitation with GFP-LC3B K51A (GFP-LC3B K51A): unable to immunoprecipitate
colocalization with LC3B K49A [6]: increased

Substance: Bnip3 wild type: mitophagy receptor Bnip3, homolog of Nix [reference compound]
affinity to LC3B K49A (in words) (EGFP-LC3B K49A): increased affinity
co-immunoprecipitation with GFP-LC3B K51A (GFP-LC3B K51A): does not

Substance: Nix S35E: single phosphomimetic Nix mutant
interaction with GST-LC3B (GST-LC3B [1]): stronger than wild type Nix but weaker than the double serine phosphomimetic S34,35D Nix mutant
interaction with GST-LC3A (GST-LC3A): stronger than wild type Nix but weaker than the double serine phosphomimetic S34,35D Nix mutant

Substance: Nix wild type: mitophagy receptor Nix, wild type, expressed in cells
co-immunoprecipitation with LC3B R11A (EGFP-LC3B R11A): do not coimmunoprecipitate
interaction rank of LC3B among Nix partners (GST-LC3B [7]): weakest
colocalization with GFP-LC3B K51A [3]: does not colocalize
targeting of mitochondria to LC3B autophagosomes / colocalization with GFP-LC3B [5]: shows colocalization
co-immunoprecipitation with LC3B R10A (EGFP-LC3B R10A): do not coimmunoprecipitate
co-immunoprecipitation with GFP-LC3B wild type (GFP-LC3B wild type): no interaction
interaction with GST-LC3B K49A (GST-LC3B K49A; listed as Nix): increased affinity
interaction with GST-LC3B K49A (GST-LC3B K49A; listed as wild type Nix): strongly increased binding
interaction with GST-LC3B (GST-LC3B [1]): considerably weaker than with LC3A
co-immunoprecipitation with GFP-LC3B K51A (GFP-LC3B K51A): fails to coimmunoprecipitate

Substance: Nix S34,35A: Nix with serine-to-alanine mutations to disable phosphorylation
mitochondrial loss (fraction of removed mitochondria), in words [4]: slightly reduced compared to wild type
targeting of mitochondria to LC3B autophagosomes / colocalization with GFP-LC3B [5]: lack of such a recruitment
targeting of mitochondria to LC3B autophagosomes / colocalization with GFP-LC3B ([5]; listed as RFP-Nix S34,35A): does not colocalize
co-immunoprecipitation with GFP-LC3B wild type (GFP-LC3B wild type): no interaction
interaction with GST-LC3B K49A (GST-LC3B K49A): strongly increased binding
interaction with GST-LC3B wild type (GST-LC3B [1]): did not interact

Substance: Bnip3S17,24E: Bnip3 S17,24E mutant [reference compound]
co-immunoprecipitation with GFP-LC3B wild type (GFP-LC3B wild type): strongly bound
co-immunoprecipitation with GFP-LC3B K51A (GFP-LC3B K51A): absent

Source: paper PMC5430633, “Phosphorylation of the mitochondrial autophagy receptor Nix enhances its interaction with LC3 proteins” (Scientific Reports, 2017)
